Test [1] deals with Monoclonal antibody (mAb) 3E7. The test can be described thus: Affinity towards anti-beta-endorphin MAb(Clone 3-E7) using [3H][Leu5]-enkephalin as labeled ligand at 10 uM concentration; not active.
The subject of test [2] is Monoclonal antibody (mAb) 3E7. The test can be described thus: Affinity towards anti-beta-endorphin MAb(Clone 3-E7) using [3H][Leu5]-enkephalin as labeled ligand.
Test [3] has as its system Monoclonal antibody (mAb) 3E7. The test can be described thus: Affinity of compound towards anti-beta-endorphin MAb(Clone 3-E7) using [3H]-[Leu5]-enkephalin as labeled ligand.

Among the data in ChEMBL document CHEMBL1150994, “The chemical synthesis of large random peptide libraries and their use for the discovery of ligands for macromolecular acceptors” (Bioorg Med Chem Lett, 1993) are Activity, IC50 and EC50 values, retold here.

Structures are written as SMILES. The source made the active and inactive calls. The rule behind the calls is not given here. Where a SMILES comes first, the peptide text is derived from it. [ ]: non-standard residue; d: D form. βAla = NCCC(=O)O

One may read the IC50 as the concentration needed to halve the response being measured. Read a low IC50 as greater potency in that assay. Consider `CC(C)C[C@H](NC(=O)[C@H](C)NC(=O)CNC(=O)[C@@H](N)Cc1ccc(O)cc1)C(=O)N[C@@H](CCC(N)=O)C(=O)O` (H-YGALQ-OH), for which the result in test [1] was inactive. This compound also registered an IC50 in test [2] of 1980 nM. `CSCC[C@H](NC(=O)CNC(=O)CNC(=O)[C@@H](N)Cc1ccc(O)cc1)C(=O)N[C@H](C(=O)O)C(C)C` (H-YGGMV-OH): the result in test [1] was inactive. Besides, in test [2], the IC50 is 8780 nM.

As a reminder, the EC50 is the concentration needed to bring the measured effect to its halfway point. With `CSCC[C@H](NC(=O)[C@@H]1CCCN1C(=O)[C@H](C)NC(=O)CNC(=O)[C@@H](N)Cc1ccc(O)cc1)C(=O)O` (H-YGAPM-OH), the EC50 in test [3] was determined as 52 nM. Regarding `C[C@H](NC(=O)[C@H](Cc1ccccc1)NC(=O)CNC(=O)CNC(=O)[C@@H](N)Cc1ccc(O)cc1)C(=O)O` (H-YGGFA-OH), the outcome in test [1] was inactive. Moreover, the IC50 in test [2] is 32.9 nM. Consider `CC(C)C[C@H](NC(=O)CNC(=O)CNC(=O)[C@@H](N)Cc1ccc(O)cc1)C(=O)N[C@@H](CO)C(=O)O` (H-YGGLS-OH), for which the result in test [1] was inactive. The same compound had an IC50 in test [2] of 726 nM. Compound `CC(C)C[C@H](NC(=O)[C@H](Cc1ccccc1)NC(=O)CNC(=O)CNC(=O)[C@@H](N)Cc1ccc(O)cc1)C(=O)N[C@@H](C)C(N)=O` (H-YGGFLA-NH2) returned an IC50 in test [2] of 13.7 nM.

`CC(C)C[C@H](NC(=O)[C@H](Cc1ccccc1)NC(=O)CNC(=O)CNC(=O)[C@@H](N)Cc1ccc(O)cc1)C(N)=O` [[LEU5]ENKEPHALIN]: the IC50 in test [2] turned out to be 27.3 nM. Compared with the last compound, the IC50 is about 2-fold higher. In test [2], `C[C@@H](O)[C@H](NC(=O)[C@H](Cc1ccccc1)NC(=O)CNC(=O)CNC(=O)[C@@H](N)Cc1ccc(O)cc1)C(=O)NCCC(=O)O` (H-YGGFT[βAla]-OH) displayed an IC50 of 50.6 nM. `C[C@H](NC(=O)[C@H](Cc1ccccc1)NC(=O)CNC(=O)CNC(=O)[C@@H](N)Cc1ccc(O)cc1)C(=O)NCCC(=O)O` (H-YGGFA[βAla]-OH) gave an IC50 in test [2] of 82.3 nM. Turning to `C[C@@H](O)[C@H](NC(=O)[C@H](Cc1ccccc1)NC(=O)CNC(=O)CNC(=O)[C@@H](N)Cc1ccc(O)cc1)C(=O)O` (H-YGGFT-OH), the result in test [1] was inactive. In test [2], this compound showed an IC50 of 36.9 nM. In the case of `NC(=O)CC[C@H](NC(=O)[C@H](Cc1ccccc1)NC(=O)CNC(=O)CNC(=O)[C@@H](N)Cc1ccccc1)C(N)=O` (H-FGGFQ-NH2), the IC50 in test [2] worked out at 40.1 nM. Same read-out and setting: in the case of `C[C@H](NC(=O)[C@H](Cc1ccccc1)NC(=O)CNC(=O)CNC(=O)[C@@H](N)Cc1ccc(O)cc1)C(N)=O` (H-YGGFA-NH2) it was 72 nM.

Compound `CSCC[C@H](NC(=O)CNC(=O)CNC(=O)[C@@H](N)Cc1ccc(O)cc1)C(=O)N[C@H](C(=O)NCCC(N)=O)C(C)C` (H-YGGMV[βAla]-NH2) showed an IC50 in test [2] of 7160 nM. The compound `NC(=O)CC[C@H](NC(=O)[C@H](Cc1ccccc1)NC(=O)CNC(=O)CNC(=O)[C@@H](N)Cc1ccccc1)C(=O)NCCC(=O)O` (H-FGGFQ[βAla]-OH) gave an IC50 in test [2] of 39.4 nM.
